Assay results: US20230416457A1, “DUAL MODALITY UPS […] TUMOR ACIDOSIS IMAGING” (The Board of Regents of The University of Texas System, priority 2018, published 2023)

Legend:
[1] = test system: orthotopic HN5 head and neck tumors; conditions: mouse, in vivo
Method: Female NOD-SCID mice (6-8 weeks) were purchased from UT Southwestern Medical Center Breeding Core. For orthotopic head and neck tumors, HN5 and FaDu (2×10^6 per mouse) were injected into the submental triangle area. One week after inoculation, animals with tumor size 20-100 mm^3 were used for imaging studies. Orthotopic murine 4T1 breast tumor model was established in BalB/C mice by injection of 4T1 (5×10^5 per mouse) cells into the mammary fat pads. GFP-transfected 73C murine glioblastoma tumor model was established by implanting 73C glioma cells intracranially in the left hemisphere of mice. Gliomas (2-4 mm in diameter) were formed within two weeks in mice.
For FDG experiments, mice were fasted for 12 h prior to PET imaging. Each mouse received 150 μCi of FDG in 150 μL of saline intravenously via tail vein injection. PET/CT images were acquired one hour post-injection for 15 mins. The mice were sedated on the imaging bed under 2% isoflurane for the duration of imaging. Immediately after the CT data acquisition that was performed at 80 kV and 500 μA with a focal spot of 58 μm, 15-min static PET scans were conducted. […] Reconstructed CT and PET images were fused and analyzed using Inveon Research Workplace (IRW) software. […] The target activity was quantitatively calculated as percentage injected dose per gram of tissue (% ID/g).

[2] = test system: LPS-induced tissue inflammation; design: species or system C57BL/6 immunocompetent mice; conditions: mouse, in vivo
[3] = test system: macrophages; conditions: cited from earlier work

^18F-fluorodeoxyglucose [FDG]
contrast over noise ratio (CNR), FDG-PET [1]: 1.7±0.6 | anticipated PET signal in inflamed tissues [2]: strong signals | increase of FDG uptake in macrophages by LPS stimulation [3]: 2.5 fold
